# Assay results as given in ChEMBL document CHEMBL1201862, “PubChem BioAssay data set” (2004).
#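 How tested: cells in 96-well plates exposed to compound for 48 hours at five concentrations. The concentration for 50% growth inhibition is given as GI50.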 Active and inactive are the calls of the source. Rule as the data show it: active = GI50 up to about 1.1 µM and inactive = higher.
# How the values were obtained:
# Test in all cases: NCI tumour cell line growth inhibition, 48 h
# MCF7 = system: MCF7
# MOLT-4 = system: MOLT-4
# HCT-116 = system: HCT-116
# OVCAR-4 = system: OVCAR-4
# HT-29 = system: HT-29
# SN12C = system: SN12C
# SNB-19 = system: SNB-19
# EKVX = system: EKVX
# SK-MEL-5 = system: SK-MEL-5
# NCI-H460 = system: NCI-H460
# K562 = system: K562
# Malme-3M = system: Malme-3M
# LOX IMVI = system: LOX IMVI
# KM12 = system: KM12
# COLO 205 = system: COLO 205
# CAKI-1 = system: CAKI-1
# T47D = system: T47D
# SR = system: SR
# SNB-75 = system: SNB-75
# SK-MEL-28 = system: SK-MEL-28
Structure (SMILES),GI50 (MCF7),GI50 (MOLT-4),GI50 (HCT-116),GI50 (OVCAR-4),GI50 (HT-29),GI50 (SN12C),GI50 (SNB-19),GI50 (EKVX),GI50 (SK-MEL-5),GI50 (NCI-H460),GI50 (K562),GI50 (Malme-3M),GI50 (LOX IMVI),GI50 (KM12),GI50 (COLO 205),GI50 (CAKI-1),GI50 (T47D),GI50 (SR),GI50 (SNB-75),GI50 (SK-MEL-28)
O=C(O)CCC(=O)c1ccc[nH]1,> 100 µM (inactive),> 100 µM (inactive),> 100 µM (inactive),> 100 µM (inactive),> 100 µM (inactive),6.56 µM (inactive),> 100 µM (inactive),> 100 µM (inactive),> 100 µM (inactive),> 100 µM (inactive),> 100 µM (inactive),> 100 µM (inactive),> 100 µM (inactive),> 100 µM (inactive),> 100 µM (inactive),> 100 µM (inactive),> 100 µM (inactive),> 100 µM (inactive),> 100 µM (inactive),
COc1ccc(C2Oc3ccc(Cl)cc3C=C2[N+](=O)[O-])cc1 (configuration not stated),> 100 µM (inactive),> 100 µM (inactive),> 100 µM (inactive),> 100 µM (inactive),> 100 µM (inactive),> 100 µM (inactive),> 100 µM (inactive),> 100 µM (inactive),> 100 µM (inactive),> 100 µM (inactive),> 100 µM (inactive),> 100 µM (inactive),> 100 µM (inactive),> 100 µM (inactive),> 100 µM (inactive),> 100 µM (inactive),> 100 µM (inactive),> 100 µM (inactive),,> 100 µM (inactive)
Cc1cc2nc3c(C#N)c4c(c(-c5ccc(Cl)cc5)n3c2cc1C)CCC4,33.1 µM (inactive),25.1 µM (inactive),18.7 µM (inactive),38.5 µM (inactive),21.3 µM (inactive),30.3 µM (inactive),20.8 µM (inactive),24.2 µM (inactive),19.6 µM (inactive),43.2 µM (inactive),23.1 µM (inactive),23.3 µM (inactive),30.2 µM (inactive),22 µM (inactive),19.8 µM (inactive),19.4 µM (inactive),22.3 µM (inactive),23.8 µM (inactive),,23.7 µM (inactive)
CCC(O)CC1OC2(CCC1C)CC1OC(=O)/C=C\C(C)(O)C(O)C(C)C(O)C(OC3CC(OC)C(O)C(C)O3)C(O)C(C)(O)CCC/C=C/C3CC(C)COC3(O)CC(O2)C1C (configuration not stated),< 0.01 µM (active),0.335 µM (active),5.08 µM (inactive),,12 µM (inactive),15.7 µM (inactive),0.0743 µM (active),< 0.01 µM (active),< 0.01 µM (active),6.62 µM (inactive),< 0.01 µM (active),10.7 µM (inactive),11.8 µM (inactive),2.43 µM (inactive),0.237 µM (active),1.24 µM (inactive),< 0.0107 µM (active),19.9 µM (inactive),2.37 µM (inactive),13.8 µM (inactive)
Oc1c([Si](c2ccccc2)(c2ccccc2)c2ccccc2)cc2ccccc2c1-c1c(O)c([Si](c2ccccc2)(c2ccccc2)c2ccccc2)cc2ccccc12,> 100 µM (inactive),42.2 µM (inactive),,> 100 µM (inactive),> 100 µM (inactive),,> 100 µM (inactive),> 100 µM (inactive),> 100 µM (inactive),> 100 µM (inactive),34.1 µM (inactive),> 100 µM (inactive),> 100 µM (inactive),> 100 µM (inactive),> 100 µM (inactive),> 100 µM (inactive),> 100 µM (inactive),> 100 µM (inactive),> 100 µM (inactive),> 100 µM (inactive)
COc1ccc(/C=c2\c(=O)[nH]c3nc4ccccc4c(=O)n23)cc1,49.9 µM (inactive),56.5 µM (inactive),70 µM (inactive),> 100 µM (inactive),69.8 µM (inactive),55.1 µM (inactive),> 100 µM (inactive),54.1 µM (inactive),73.6 µM (inactive),,,58.5 µM (inactive),45.9 µM (inactive),73.5 µM (inactive),60.8 µM (inactive),55.8 µM (inactive),36.5 µM (inactive),48.2 µM (inactive),32.5 µM (inactive),42.5 µM (inactive)
CC(C)(Cc1ccccc1)NC1=NCCO1,> 100 µM (inactive),> 100 µM (inactive),> 100 µM (inactive),> 100 µM (inactive),> 100 µM (inactive),,> 100 µM (inactive),> 100 µM (inactive),> 100 µM (inactive),> 100 µM (inactive),> 100 µM (inactive),> 100 µM (inactive),> 100 µM (inactive),> 100 µM (inactive),> 100 µM (inactive),> 100 µM (inactive),> 10 µM (inactive),> 100 µM (inactive),35.2 µM (inactive),> 100 µM (inactive)
FC(F)(F)c1ccc2c(c1)nc(-c1ccc(Cl)cc1)n2CC1CCCN2CCCCC12 (configuration not stated),14.5 µM (inactive),0.233 µM (active),14.3 µM (inactive),15.8 µM (inactive),4.98 µM (inactive),12.9 µM (inactive),17.1 µM (inactive),9.91 µM (inactive),14 µM (inactive),16.6 µM (inactive),,15.3 µM (inactive),14.3 µM (inactive),15.8 µM (inactive),11.6 µM (inactive),17.1 µM (inactive),16.7 µM (inactive),11.9 µM (inactive),6.84 µM (inactive),14.9 µM (inactive)
CC(=O)O[C@H]1C(=O)[C@@]2(C)[C@H]([C@H](OC(=O)c3ccccc3)[C@]3(O)C[C@H](OC(=O)[C@H](O)[C@@H](NC(=O)CC(C)C)c4ccccc4)C(C)=C1C3(C)C)[C@]1(OC(C)=O)CO[C@@H]1C[C@@H]2O,< 0.001 µM (active),0.00149 µM (active),0.00167 µM (active),> 10 µM (inactive),< 0.001 µM (active),0.00524 µM (active),0.607 µM (active),0.428 µM (active),0.00251 µM (active),0.00334 µM (active),0.00179 µM (active),0.0135 µM (active),0.00619 µM (active),,0.00178 µM (active),0.378 µM (active),0.00399 µM (active),0.00171 µM (active),< 0.001 µM (active),0.00318 µM (active)
C1=C(CC2=C[P+](c3ccccc3)(c3ccccc3)C=C(c3ccccc3)O2)OC(c2ccccc2)=C[P+]1(c1ccccc1)c1ccccc1,0.392 µM (active),0.489 µM (active),0.332 µM (active),,0.358 µM (active),0.339 µM (active),0.328 µM (active),0.44 µM (active),0.293 µM (active),0.577 µM (active),,0.248 µM (active),0.431 µM (active),0.325 µM (active),0.162 µM (active),2.21 µM (inactive),0.17 µM (active),0.26 µM (active),0.291 µM (active),0.724 µM (active)
